Assay results from ChEMBL document CHEMBL1201862, “PubChem BioAssay data set” (2004).
Active and inactive are the calls of the source.

Assays:
[1] = molecular target: T1, Alkaline phosphatase, tissue-nonspecific isozyme (Homo sapiens, UniProt P05186); assay: human TNAP enzyme inhibitors, SAR follow-up, biochemical, luminescent, dose response (AID 1056)
T1 sequence (P05186 whole entry): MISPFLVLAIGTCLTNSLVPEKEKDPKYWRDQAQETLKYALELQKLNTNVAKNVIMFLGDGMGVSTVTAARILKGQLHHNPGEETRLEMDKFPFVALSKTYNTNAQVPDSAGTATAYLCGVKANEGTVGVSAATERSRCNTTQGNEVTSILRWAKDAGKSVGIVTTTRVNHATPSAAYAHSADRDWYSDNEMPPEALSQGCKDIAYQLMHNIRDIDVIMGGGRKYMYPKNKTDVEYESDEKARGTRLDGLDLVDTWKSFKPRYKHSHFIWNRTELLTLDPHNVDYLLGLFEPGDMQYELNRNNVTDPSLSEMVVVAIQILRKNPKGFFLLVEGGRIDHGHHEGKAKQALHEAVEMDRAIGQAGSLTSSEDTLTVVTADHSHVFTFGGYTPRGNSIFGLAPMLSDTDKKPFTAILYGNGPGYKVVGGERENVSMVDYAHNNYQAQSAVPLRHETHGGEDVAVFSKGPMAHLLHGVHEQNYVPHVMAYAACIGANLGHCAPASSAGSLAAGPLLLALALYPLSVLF

[2] = molecular target: T2, Mannose-6-phosphate isomerase (Homo sapiens, UniProt P34949); assay: PMI enzyme inhibitors, confirmation, biochemical, fluorescence intensity (AID 1535)
T2 sequence (P34949 whole entry): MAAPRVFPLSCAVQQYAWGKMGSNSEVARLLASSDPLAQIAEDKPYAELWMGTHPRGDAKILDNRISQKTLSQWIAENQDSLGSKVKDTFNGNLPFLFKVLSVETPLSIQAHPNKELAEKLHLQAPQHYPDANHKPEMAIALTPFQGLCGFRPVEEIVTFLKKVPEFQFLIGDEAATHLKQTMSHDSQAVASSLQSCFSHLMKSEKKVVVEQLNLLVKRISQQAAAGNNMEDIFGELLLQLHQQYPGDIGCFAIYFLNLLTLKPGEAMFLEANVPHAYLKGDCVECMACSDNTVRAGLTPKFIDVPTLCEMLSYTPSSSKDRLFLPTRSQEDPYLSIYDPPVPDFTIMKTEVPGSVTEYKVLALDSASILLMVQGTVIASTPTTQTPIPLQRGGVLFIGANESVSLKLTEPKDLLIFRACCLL

[3] = molecular target: Phosphoethanolamine/phosphocholine phosphatase (Homo sapiens, UniProt Q8TCT1); assay: SAR assay for compounds that inhibit PHOSPHO1. [Related pubchem assays (depositor defined):AID1545, AID1565, AID1574]
Sequence of Phosphoethanolamine/phosphocholine phosphatase (Q8TCT1 whole entry): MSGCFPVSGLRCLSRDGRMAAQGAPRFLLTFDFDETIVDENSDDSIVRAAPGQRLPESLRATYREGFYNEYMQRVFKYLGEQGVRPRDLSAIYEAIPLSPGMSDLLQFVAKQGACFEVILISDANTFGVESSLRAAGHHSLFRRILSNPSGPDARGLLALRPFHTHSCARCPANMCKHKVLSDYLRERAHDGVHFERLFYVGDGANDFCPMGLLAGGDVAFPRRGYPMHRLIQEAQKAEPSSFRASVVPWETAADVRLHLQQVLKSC

Phosphomannomutase 2 = molecular target: T3, Phosphomannomutase 2 (Homo sapiens, UniProt O15305); assay: Counter screen SAR assay for PMM2 inhibitors via a fluorescence intensity assay. [Related pubchem assays (depositor defined):AID1545, AID1574]
T3 sequence (O15305 whole entry): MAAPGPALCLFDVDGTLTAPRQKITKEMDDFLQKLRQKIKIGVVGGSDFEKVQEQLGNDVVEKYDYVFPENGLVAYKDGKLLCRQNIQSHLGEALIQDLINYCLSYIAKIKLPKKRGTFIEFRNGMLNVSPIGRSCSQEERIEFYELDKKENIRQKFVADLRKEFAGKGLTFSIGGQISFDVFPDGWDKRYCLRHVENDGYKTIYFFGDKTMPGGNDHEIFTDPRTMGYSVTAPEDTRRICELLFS

[4] = molecular target: T4, G-protein coupled receptor 55 (Homo sapiens, UniProt Q9Y2T6); assay: GPR55 antagonists blocking LPI-driven arrestin recruitment, primary screen, imaging, U2OS, beta-arrestin-GFP, LPI agonist (AID 2013); type: functional;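 note: antagonist potency measured as reduced agonist-driven arrestin aggregation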
T4 sequence (Q9Y2T6 whole entry): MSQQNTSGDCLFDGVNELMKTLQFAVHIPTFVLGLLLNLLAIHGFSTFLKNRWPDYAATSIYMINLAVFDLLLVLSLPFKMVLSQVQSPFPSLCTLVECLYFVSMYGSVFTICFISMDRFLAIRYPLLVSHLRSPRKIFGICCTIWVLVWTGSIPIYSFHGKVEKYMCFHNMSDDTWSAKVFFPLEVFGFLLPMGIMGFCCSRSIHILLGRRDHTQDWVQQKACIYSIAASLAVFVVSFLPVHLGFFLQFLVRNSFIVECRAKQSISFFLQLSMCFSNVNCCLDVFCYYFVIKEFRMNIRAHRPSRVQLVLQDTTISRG

[5] = molecular target: 26S proteasome non-ATPase regulatory subunit 14 (Homo sapiens, UniProt O00487); assay: inhibition of proteasome subunit RPN11 – biochemical, fluorescence polarization, uHTS hits, confirmation (AID 602368); type: functional
Sequence of 26S proteasome non-ATPase regulatory subunit 14 (O00487 whole entry): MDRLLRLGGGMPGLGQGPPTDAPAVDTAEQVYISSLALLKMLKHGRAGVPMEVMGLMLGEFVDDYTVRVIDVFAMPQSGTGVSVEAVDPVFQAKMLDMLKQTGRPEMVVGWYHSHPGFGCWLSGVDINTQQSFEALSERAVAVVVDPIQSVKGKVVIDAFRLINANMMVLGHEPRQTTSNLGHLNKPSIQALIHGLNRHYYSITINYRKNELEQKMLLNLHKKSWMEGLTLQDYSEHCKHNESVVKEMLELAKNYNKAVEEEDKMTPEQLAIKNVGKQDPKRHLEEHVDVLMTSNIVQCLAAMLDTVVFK

[6] = molecular target: T5, Sentrin-specific protease 1 (Homo sapiens, UniProt Q9P0U3); assay: potency of human SENP1 inhibitors, dose response, biochemical, kinetic FRET (AID 651697); type: functional; conditions: read-out: IC50_Mean
T5 sequence (Q9P0U3 whole entry): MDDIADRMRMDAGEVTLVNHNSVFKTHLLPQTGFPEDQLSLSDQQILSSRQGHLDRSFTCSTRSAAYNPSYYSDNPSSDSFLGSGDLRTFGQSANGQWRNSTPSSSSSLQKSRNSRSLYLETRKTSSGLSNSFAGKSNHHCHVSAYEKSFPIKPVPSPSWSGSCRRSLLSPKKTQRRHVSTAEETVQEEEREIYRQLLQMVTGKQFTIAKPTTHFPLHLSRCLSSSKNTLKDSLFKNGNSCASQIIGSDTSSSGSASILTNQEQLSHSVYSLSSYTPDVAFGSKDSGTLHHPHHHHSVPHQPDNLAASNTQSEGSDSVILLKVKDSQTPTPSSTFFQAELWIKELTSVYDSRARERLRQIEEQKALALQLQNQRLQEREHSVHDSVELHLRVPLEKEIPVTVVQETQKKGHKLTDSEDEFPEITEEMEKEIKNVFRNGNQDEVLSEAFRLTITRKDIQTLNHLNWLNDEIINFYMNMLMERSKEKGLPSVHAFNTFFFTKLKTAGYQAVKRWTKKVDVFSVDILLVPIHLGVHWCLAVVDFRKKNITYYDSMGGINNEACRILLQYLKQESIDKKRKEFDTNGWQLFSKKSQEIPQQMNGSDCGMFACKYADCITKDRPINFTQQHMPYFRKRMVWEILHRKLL

[7] = molecular target: T6, Calpain-2 catalytic subunit (Sus scrofa, UniProt P43367); assay: pig calpain II inhibitor potency, dose response, biochemical, fluorogenic peptide substrate (AID 1420); type: functional
T6 sequence (P43367 whole entry): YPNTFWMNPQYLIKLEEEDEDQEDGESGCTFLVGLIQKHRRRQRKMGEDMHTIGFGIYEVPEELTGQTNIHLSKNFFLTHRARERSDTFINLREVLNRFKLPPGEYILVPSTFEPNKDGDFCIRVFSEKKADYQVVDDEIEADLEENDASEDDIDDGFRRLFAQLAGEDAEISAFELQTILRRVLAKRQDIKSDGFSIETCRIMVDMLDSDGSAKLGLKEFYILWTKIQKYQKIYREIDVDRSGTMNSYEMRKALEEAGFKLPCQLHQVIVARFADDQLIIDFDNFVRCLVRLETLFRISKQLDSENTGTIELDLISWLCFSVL

[8] = molecular target: 72 kDa type IV collagenase (Homo sapiens, UniProt P08253); assay: Dose Response validation of uHTS RPN11 inhibitor hits using a MMP-2 Fluorescence assay.; type: functional
Sequence of 72 kDa type IV collagenase (P08253 whole entry): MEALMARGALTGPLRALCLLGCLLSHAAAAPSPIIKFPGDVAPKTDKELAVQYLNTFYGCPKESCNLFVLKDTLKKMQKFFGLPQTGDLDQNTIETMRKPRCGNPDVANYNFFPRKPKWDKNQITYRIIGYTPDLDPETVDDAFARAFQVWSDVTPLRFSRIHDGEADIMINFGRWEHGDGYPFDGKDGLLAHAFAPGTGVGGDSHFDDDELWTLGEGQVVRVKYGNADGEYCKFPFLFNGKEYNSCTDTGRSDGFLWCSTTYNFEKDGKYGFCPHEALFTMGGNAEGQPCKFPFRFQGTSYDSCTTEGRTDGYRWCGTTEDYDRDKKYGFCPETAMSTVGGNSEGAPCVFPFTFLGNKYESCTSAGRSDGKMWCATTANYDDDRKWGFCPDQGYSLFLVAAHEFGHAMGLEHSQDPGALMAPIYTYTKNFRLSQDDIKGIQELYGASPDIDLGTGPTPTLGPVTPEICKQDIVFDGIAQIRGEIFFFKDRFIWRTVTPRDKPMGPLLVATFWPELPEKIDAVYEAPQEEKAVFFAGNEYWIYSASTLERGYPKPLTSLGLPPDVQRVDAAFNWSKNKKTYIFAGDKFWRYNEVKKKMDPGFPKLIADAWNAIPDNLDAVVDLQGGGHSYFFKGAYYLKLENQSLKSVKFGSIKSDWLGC

Prothrombin = Prothrombin (Bos taurus, UniProt P00735); assay: thrombin inhibition, dose response, biochemical, fluorescence polarization, uHTS hits (AID 602369); type: functional
[9] = molecular target: T5, Sentrin-specific protease 1; assay: Dose response confirmation of small molecule inhibitors of the catalytic domain of the SUMO protease, SENP1 in a FRET assay.; type: functional; conditions: read-out: IC50_Mean
Aminopeptidase N = molecular target: T7, Aminopeptidase N (Plasmodium falciparum FcB1/Columbia, UniProt O96935); assay: P. falciparum M1AAP inhibitors, biochemical, fluorogenic H-Leu-NHMec substrate, 1536-well (AID 1445); parameters: species or system Plasmodium falciparum 3D7, 3D7
T7 sequence (O96935 whole entry): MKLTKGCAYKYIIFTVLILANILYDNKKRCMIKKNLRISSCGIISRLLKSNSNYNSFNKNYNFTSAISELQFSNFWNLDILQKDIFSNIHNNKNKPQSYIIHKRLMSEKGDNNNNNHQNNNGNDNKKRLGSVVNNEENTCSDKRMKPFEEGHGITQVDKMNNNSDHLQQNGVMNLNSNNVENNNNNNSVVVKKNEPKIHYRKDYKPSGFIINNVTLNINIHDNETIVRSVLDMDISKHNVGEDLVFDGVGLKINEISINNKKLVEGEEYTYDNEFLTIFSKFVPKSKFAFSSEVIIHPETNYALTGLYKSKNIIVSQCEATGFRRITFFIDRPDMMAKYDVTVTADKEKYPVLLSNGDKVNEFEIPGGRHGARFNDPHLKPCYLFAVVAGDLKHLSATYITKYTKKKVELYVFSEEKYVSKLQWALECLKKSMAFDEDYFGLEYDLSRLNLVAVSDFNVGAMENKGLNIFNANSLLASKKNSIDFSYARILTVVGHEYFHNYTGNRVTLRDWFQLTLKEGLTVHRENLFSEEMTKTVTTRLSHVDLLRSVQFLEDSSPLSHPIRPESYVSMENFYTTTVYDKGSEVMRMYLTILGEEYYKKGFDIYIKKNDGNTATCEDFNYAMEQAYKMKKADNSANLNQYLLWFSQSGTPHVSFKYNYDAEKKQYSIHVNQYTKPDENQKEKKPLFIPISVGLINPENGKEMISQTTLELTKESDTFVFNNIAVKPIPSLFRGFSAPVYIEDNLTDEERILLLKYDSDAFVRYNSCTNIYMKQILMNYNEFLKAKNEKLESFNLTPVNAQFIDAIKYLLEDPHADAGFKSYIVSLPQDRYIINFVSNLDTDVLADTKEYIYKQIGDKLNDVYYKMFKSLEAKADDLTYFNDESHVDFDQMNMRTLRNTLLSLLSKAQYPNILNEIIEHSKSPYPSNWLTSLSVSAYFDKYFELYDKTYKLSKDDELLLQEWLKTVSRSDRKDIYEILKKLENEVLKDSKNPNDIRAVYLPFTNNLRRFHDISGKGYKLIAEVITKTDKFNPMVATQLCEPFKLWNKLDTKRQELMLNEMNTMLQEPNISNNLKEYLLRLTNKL

[10] = HepG2 cell cytotoxicity, dose response, cytotoxicity control for non-replicating M. tuberculosis project (AID 489018); type: functional; conditions: Mycobacterium tuberculosis
cells = type: functional
Paired box protein Pax-8 = Paired box protein Pax-8 (Homo sapiens, UniProt Q06710); assay: inhibitors of PAX8-driven TPO luciferase reporter, dose response, RMG-I cells, cherry-pick (AID 687027); type: functional, cell-based;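 note: luciferase reporter driven by Pax8 target thyroperoxidase promoter measured by SteadyGlo luminescence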
Sequence of Paired box protein Pax-8 (Q06710 whole entry): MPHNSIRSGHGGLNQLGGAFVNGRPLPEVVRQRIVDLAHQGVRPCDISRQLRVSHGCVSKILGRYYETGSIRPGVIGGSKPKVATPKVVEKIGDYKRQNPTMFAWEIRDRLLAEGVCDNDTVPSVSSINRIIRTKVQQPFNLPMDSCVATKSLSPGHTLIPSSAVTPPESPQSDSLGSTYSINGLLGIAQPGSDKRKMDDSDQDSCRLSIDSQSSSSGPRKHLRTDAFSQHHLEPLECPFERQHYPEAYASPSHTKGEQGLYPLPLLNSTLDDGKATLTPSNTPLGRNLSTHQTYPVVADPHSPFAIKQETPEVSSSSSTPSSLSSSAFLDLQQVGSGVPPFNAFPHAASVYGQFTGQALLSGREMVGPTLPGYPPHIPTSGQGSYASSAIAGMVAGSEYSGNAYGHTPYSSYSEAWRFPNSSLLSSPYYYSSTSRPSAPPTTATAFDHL

[11] = inhibitors of intracellular T. cruzi replication, confirmation, NIH3T3 host cells, beta-gal luminescence (AID 2044); type: functional, cell-based;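 note: intracellular parasites grown in NIH/3T3 mouse fibroblasts as host cells; luminescent beta-galactosidase reporter signal from transgenic T. cruzi replicating inside host cells; inhibitors lower the luminescence signal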
[12] = Vero E6 cell cytotoxicity, dose response, cytotoxicity control for non-replicating M. tuberculosis project, secondary assay (AID 492998); type: functional, VeroE6; conditions: Vero C1008
[13] = cytotoxicity toward NIH3T3 fibroblasts, dose response, counter-screen, cell-based, ATP luminescence, mouse fibroblasts (AID 2010); type: functional;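 note: cells exposed to compound for about 90 hours before reading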
[14] = THP-1 cell cytotoxicity, dose response, cytotoxicity control for non-replicating M. tuberculosis project (AID 489025); type: functional
[15] = Luminescent dose response cell-based high throughput screening assay for inhibitors of the Janus kinase 2 mutant JAK2V617F. [Related pubchem assays: 1446 (Primary screen.), 1521 (Confirmation assay.), 1486 (Counter screen.)]; type: functional
[16] = ADAM10 protease inhibitors, dose response, selectivity assay for ADAM17 exosite inhibitor project, biochemical, FRET peptide substrate, recombinant human ADAM10 (AID 743259);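 note: ADAM10 enzyme cleaving a FRET peptide substrate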
[17] = molecular target: T4, G-protein coupled receptor 55; assay: GPR55 agonists via beta-arrestin recruitment, primary screen, imaging, U2OS cells, beta-arrestin-GFP redistribution (AID 1961); type: functional
[18] = molecular target: Disintegrin and metalloproteinase domain-containing protein 17 (Homo sapiens, UniProt P78536); assay: exosite inhibitors of ADAM17, dose response, biochemical (AID 743260)
Sequence of Disintegrin and metalloproteinase domain-containing protein 17 (P78536 whole entry, the tested form may be a part): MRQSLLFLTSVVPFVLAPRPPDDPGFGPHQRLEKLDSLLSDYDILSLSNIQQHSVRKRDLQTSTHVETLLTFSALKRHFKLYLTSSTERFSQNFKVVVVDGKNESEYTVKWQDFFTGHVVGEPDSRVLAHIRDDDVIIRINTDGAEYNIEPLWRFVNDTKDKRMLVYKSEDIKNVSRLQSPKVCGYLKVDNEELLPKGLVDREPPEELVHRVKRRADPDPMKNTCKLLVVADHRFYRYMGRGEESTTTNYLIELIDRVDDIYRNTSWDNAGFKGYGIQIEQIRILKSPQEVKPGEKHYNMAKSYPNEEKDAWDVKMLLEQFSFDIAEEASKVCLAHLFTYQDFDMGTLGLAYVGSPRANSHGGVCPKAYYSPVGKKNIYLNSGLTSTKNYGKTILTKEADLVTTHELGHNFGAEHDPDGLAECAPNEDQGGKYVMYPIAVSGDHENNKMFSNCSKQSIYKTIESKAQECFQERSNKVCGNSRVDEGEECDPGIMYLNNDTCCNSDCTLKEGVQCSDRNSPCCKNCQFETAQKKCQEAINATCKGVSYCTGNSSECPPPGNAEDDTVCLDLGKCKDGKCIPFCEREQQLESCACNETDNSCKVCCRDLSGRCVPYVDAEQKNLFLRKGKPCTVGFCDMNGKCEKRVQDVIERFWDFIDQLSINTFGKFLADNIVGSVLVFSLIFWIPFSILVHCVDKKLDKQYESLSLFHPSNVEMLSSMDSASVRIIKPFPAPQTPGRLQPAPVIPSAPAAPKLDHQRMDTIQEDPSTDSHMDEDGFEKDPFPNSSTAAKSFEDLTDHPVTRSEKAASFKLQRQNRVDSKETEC

[19] = molecular target: FAD-linked sulfhydryl oxidase ALR (Homo sapiens, UniProt P55789); assay: inhibitors of human ALR sulfhydryl oxidase, dose response, biochemical, H2O2 detection, luminescence, cherry-pick (AID 493248)
Sequence of FAD-linked sulfhydryl oxidase ALR (P55789 whole entry): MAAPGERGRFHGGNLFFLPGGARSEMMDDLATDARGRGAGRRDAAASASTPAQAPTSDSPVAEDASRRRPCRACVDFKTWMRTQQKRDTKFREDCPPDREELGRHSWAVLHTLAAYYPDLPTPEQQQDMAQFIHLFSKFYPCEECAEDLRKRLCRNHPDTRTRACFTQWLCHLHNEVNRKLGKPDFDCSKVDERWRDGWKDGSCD

[20] = molecular target: T8, Ubiquitin-conjugating enzyme E2 N (Homo sapiens, UniProt P61088); type: functional;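 note: Dose-response confirmation in a TR-FRET assay detecting UBC13-driven polyubiquitin chain formation, inhibition measured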
T8 sequence (P61088 whole entry): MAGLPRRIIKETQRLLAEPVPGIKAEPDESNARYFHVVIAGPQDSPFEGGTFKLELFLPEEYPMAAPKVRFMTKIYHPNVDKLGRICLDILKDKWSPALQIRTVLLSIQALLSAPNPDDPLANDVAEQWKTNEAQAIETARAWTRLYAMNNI

INS1 = assay: beta cell apoptosis inhibitors, cytokine rescue, dose response, luminescence, retest (AID 449756); type: functional, cell-based; conditions: Rattus norvegicus, INS1;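 note: cell death triggered by IL-1 beta plus TNF-alpha plus IFN-gamma mixture; protective hits raise ATP signal compared with cytokine alone wells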
[21] = HepG2 cell cytotoxicity, dose response, cytotoxicity control, ATP luminescence, cherry-pick, activator set 2 (AID 1053143); type: functional, cell-based

O=c1c2ccccc2sn1-c1ccc(Cl)c(S(=O)(=O)N2CCOCC2)c1
IC50 [1]: > 100 µM (inactive) | IC50 [2]: 8.58 µM (active) | IC50 [3]: 1.07 µM (inactive) | IC50 (Phosphomannomutase 2): 55.3 µM (active)

O=C(NCCSCc1ccccc1)c1ccc(C2SCC(=O)N2Cc2ccccc2)cc1 (stereo not given)
IC50 [4]: 1.49 µM (active) | IC50 [5]: 37.5 µM (active) | IC50 [6]: 11 µM (active) | IC50 [7]: 4.77 µM (not active) | IC50 [8]: > 100 µM (inactive) | IC50 (Prothrombin): 50.5 µM (active) | IC50 [9]: 19.1 µM (active)

O=C(Nc1cccc(NC(=O)c2cccs2)c1)c1ccc([N+](=O)[O-])o1
IC50 (Aminopeptidase N): 49.8 µM (active) | CC50 [10]: 11 µM (active) | IC50 (cells): 4.05 µM (active) | AC50 (Paired box protein Pax-8): 4.04 µM (active) | EC50 [11]: 0.104 µM (active) | CC50 [12]: 11.9 µM (active) | EC50 [13]: > 60 µM (not active) | CC50 [14]: 7.45 µM (active) | IC50 [15]: 1.57 µM (active)

Cc1ccc(C(=O)N2CCN(C3c4cccc5cccc(c45)C3NS(=O)(=O)c3ccccc3)CC2)cc1 (stereo not given)
IC50 [16]: > 69.5 µM (inactive) | EC50 [17]: 3.68 µM (active) | IC50 [18]: > 69.5 µM (inactive)

CCCOc1ccc(/C=C2/C(=O)ON=C2C)cc1Cl
EC50 [17]: > 32 µM (inactive)

CN(C)CCCNc1cc(C(C)(C)C)nc2c(-c3ccccc3)cnn12
AC50 [19]: 2.53 µM (active) | IC50 [20]: > 20 µM (inactive) | CC50 [10]: > 20 µM (active) | IC50 (cells): 19.8 µM (active) | EC50 [11]: 0.574 µM (active) | CC50 [12]: > 20 µM (active) | EC50 [13]: 4.96 µM (active) | AC50 (INS1): 13.8 µM (active) | CC50 [14]: 24.5 µM (active) | AC50 [21]: 15.5 µM (active)

CCOC(=O)c1cc(C#N)c(Oc2ccccc2)nc1-c1ccccc1
IC50 [4]: 1.69 µM (active)
